# Test results: patent US20110171192A1, “SUBSTITUTED AMINE DERIVATIVE AND MEDICINAL COMPOSITION COMPRISING SAME AS THE ACTIVE INGREDIENT” (priority 2008, published 2011)
# Experiments:
# [1] = Stability of nucleic acid transporter inhibitor in solution (acetate buffer pH 3, HPLC); format: physicochemical; conditions: for residual ratio of the compound (%): acetate buffer pH 3, 10^−5 M, 25 °C, 20 hours after
# Experimental: Stability of Nucleic Acid Transporter Inhibitor in Solution
# 0.02 mL of comparative compound or compound (1) methanol solution at the concentration of 10^−3 M was added to the 1.98 mL of acetate buffer, pH 3 (final concentration of 10^−5 M). The solutions were incubated at 25 °C, and the reaction solutions were collected at 2, 4 and 20 hours later. Each obtained 0.5 mL of reaction solutions were neutralized and adjusted to 1 mL, and 0.01 mL of 10^−3 M methanol solutions of 4-hydroxy were spiked as internal standard substrate. The solutions were measured by HPLC according to the measurement condition shown as follows, and the ratio (IS ratio) compared the amount of internal standard substrate with the amount of compounds was calculated. The remaining rate of test compounds were obtained to compare the IS ratio with IS ratio of pre-incubation according to the method described above.
# HPLC Analytical Condition • column: Inertsil ODS-2 (φ4.6×150 mm) • Mobile phase: 20 mM phosphate buffer (pH 6)/CH3CN=7/3 (w/w) • Detection absorbance: 250 nm • Flow rate: 1 mL/min • Injection volume: 0.02 mL • Time span of measurement: 20 min
# human CNT2 = biological target: T1, human CNT2 (Homo sapiens, UniProt O43868); experiment: Inhibitory activity against uptake of adenosine through human CNT2; format: cell-based; conditions: human CNT2 transiently expressing cells, 14C-adenosine 10 μM, 30 minutes at 37° C., NBMPR 10 μM
# T1 construct: expressed in transfected cells
# T1 sequence (O43868 1-658): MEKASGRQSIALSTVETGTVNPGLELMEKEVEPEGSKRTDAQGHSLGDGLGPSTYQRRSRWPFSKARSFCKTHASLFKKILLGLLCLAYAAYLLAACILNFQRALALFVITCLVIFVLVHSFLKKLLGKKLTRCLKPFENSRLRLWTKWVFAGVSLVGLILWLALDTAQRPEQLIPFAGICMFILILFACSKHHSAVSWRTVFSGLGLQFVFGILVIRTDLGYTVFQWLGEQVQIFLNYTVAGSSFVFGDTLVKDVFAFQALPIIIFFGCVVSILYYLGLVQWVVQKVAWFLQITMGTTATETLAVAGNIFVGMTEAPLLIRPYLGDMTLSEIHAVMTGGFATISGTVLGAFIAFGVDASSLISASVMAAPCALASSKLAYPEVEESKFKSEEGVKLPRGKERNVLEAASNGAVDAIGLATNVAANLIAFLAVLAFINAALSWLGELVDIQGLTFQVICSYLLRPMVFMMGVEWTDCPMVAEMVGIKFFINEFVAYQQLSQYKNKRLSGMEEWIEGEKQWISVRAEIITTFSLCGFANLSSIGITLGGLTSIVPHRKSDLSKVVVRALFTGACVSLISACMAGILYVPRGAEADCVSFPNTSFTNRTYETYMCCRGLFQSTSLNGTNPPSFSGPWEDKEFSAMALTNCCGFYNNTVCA
# Experimental: Measurement of Inhibitory Activity Against Uptake of Adenosine Through Human CNT2
# An Uptake buffer was prepared by addition of a mixture of non-radioisotope labeled (Sigma) and ^14C-labeled (GE Healthcare) adenosine at the final concentration of 10 μM into a buffer, pH 7.4, containing 140 mM sodium chloride, 2 mM potassium chloride, 1 mM calcium chloride, 1 mM magnesium chloride, 10 mM HEPES
# 2-[4-(2-hydroxyethyl)-1-piperazinyl]thane sulfonic acid, 5 mM tris(hydroxymethyl)aminomethane and 5 mM glucose. For measurement of basal uptake, Basal uptake measurement buffer, which contained 140 mM choline chloride instead of sodium chloride was prepared. In uptake assays, NBMPR was added to Uptake buffer and Basal uptake measurement buffer at the final concentration of 10 μM. In the case of measurement of inhibitory activity of test compounds, test compounds were dissolved in dimethyl sulfoxide, and then appropriately diluted with Uptake buffer as to Measurement buffers. After removing culture medium of human CNT2 transiently expressing cells, Pretreatment buffer (Basal uptake measurement buffer without adenosine and glucose) was added to wells at 500 μL/well and incubated at 37° C. for 10 minutes. After repeating the same step again, Pretreatment buffer was removed and Measurement buffers and Basal uptake measurement buffer were added at 300 μL/well and incubated at 37° C. After incubation for 30 minutes, Measurement buffers and Basal uptake measurement buffer were removed, and the cells were washed with Washing buffer (Basal uptake measurement buffer with non-radioisotope labeled adenosine at 10 μM) at 500 μL/well twice. The cells were solubilized with 0.5 mol/L sodium hydroxide at 200 μL/well, and the cell lysates were transferred into glass vials at 100 μL. After mixing with 5 mL of ACS-II (GE Healthcare Bioscience), radioactivity was measured by means of scintillation counter (Aloka). One hundred % was set to the difference between the uptake in the control group and the basal uptake, and the uptake of adenosine at each test compound concentration was calculated. The test compound concentration inhibiting 50% uptake of adenosine (IC50 value) was calculated using regression line. […] The IC50 value was expressed as A; 1˜10 nM, B; 10˜100 nM or not less than 100 nM;
# absorption of adenosine = experiment: Inhibition of absorption of orally given [3H]-adenosine in rats (serum radioactivity); format: in vivo; conditions: male SD rats, oral; for ED50: Rattus norvegicus, 50% inhibitory dose on absorption of adenosine, from regression line; for ED50 value (in words): inhibition on absorption of adenosine
# Experimental: Four weeks old male SD rats (Charles river japan corporation) were purchased and the animals over 1 weeks quarantine were used. Body weight of the rats fasted 24 hours from last day were measured and grouped used grouping soft (Stat light #11, Yukums corporation). Test compound and [^3H]-adenosine solution (4 μCi/mL) were given orally at the volume of 2 mL/kg, and about 500 μL of blood were obtained from retro orbital vein. The blood was centrifuged at 3000 rpm for 10 min, and 13 μL of H2O2 solution were added to the 100 μL of resulted serum and placed for 10 min. And 5 mL of liquid scintilation cocktail added and mixed enough, and radio activity was measured using liquid scintillation counter. Inhibitory rate was calculated according to the formula described as follow, and the regression line was obtained from inhibitory rate and its log dose. The 50% inhibitory dose of the compound (ED50) at the inhibition on absorption of adenosine was calculated used regression line formula The results were shown in Table 2.
# Inhibitory ratio={1−radio activity of the serum obtained from rats treated with test compound (dpm)/radio activity of the serum obtained from rats treated with vehicle (dpm)}×100
residual ratio of the compound (%) [1] [%],"Stability in pH3 solution (in words) ([1]; pH3 solution, versus comparative compound)",SMILES,IC50 (human CNT2) [nM],ED50 (absorption of adenosine) [mg/kg],ED50 value (in words) (absorption of adenosine)
45.0,–,"N#Cc1c(NCc2ccc(-c3ccccc3)cc2)n(C2O[C@H](CO)[C@@H](O)[C@H]2O)c2ncnc(N)c12 (stereo partly drawn) [Comparative compound, reference compound]",–,–,–
85.0,better than that of comparative compound,"C[C@@]1(O)[C@H](O)[C@@H](CO)O[C@H]1n1c(NCc2ccc(-c3ccccc3)cc2)c(C#N)c2c(N)ncnc21 [Compound (1), 4-Amino-6-[(biphenyl-4-ylmethyl)-amino]-7-(3,4-dihydroxy-5-hydroxymethyl-3-methyl-tetrahydro-furan-2-yl)-7H-pyrrolo[2,3-d]pyrimidine-5-carbonitrile]",≥ 100,1.3,high ED50 value
–,–,"CCOC(=O)CCCCOc1cc(CNc2c(C#N)c3c(N)ncnc3n2C2O[C@H](CO)[C@@H](O)[C@@]2(C)O)ccc1-c1ccccc1 (stereo partly drawn) [Compound (2), 5-(4-{[4-Amino-5-cyano-7-(3,4-dihydroxy-5-hydroxymethyl-3-methyl-tetrahydrofuran-2-yl)-7H-pyrrolo[2,3-d]pyrimidin-6-ylamino]-methyl}-biphenyl-2-yloxy)-pentanoic acid ethyl ester]",10 to 100,1.4,high ED50 value
–,–,"C[C@]1(O)C(n2c(NCc3ccc(-c4ccccc4)c(OCCCCCl)c3)c(C#N)c3c(N)ncnc32)O[C@H](CO)[C@H]1O (stereo partly drawn) [Compound (3), 4-Amino-6-{[2-(4-chloro-butoxy)-biphenyl-4-ylmethyl]-amino}-7-(3,4-dihydroxy-5-hydroxymethyl-3-methyl-tetrahydro-furan-2-yl)-7H-pyrrolo[2,3-d]pyrimidine-5-carbonitrile]",10 to 100,1.1,high ED50 value
–,–,"C[C@]1(O)C(n2c(NCc3ccc(-c4ccccc4)c(OCCCCN4CCOCC4)c3)c(C#N)c3c(N)ncnc32)O[C@H](CO)[C@H]1O (stereo partly drawn) [Compound (4), 4-Amino-7-(3,4-dihydroxy-5-hydroxymethyl-3-methyl-tetrahydro-furan-2-yl)-6-{[2-(4-morpholin-4-yl-butoxy)-biphenyl-4-ylmethyl]-amino}-7H-pyrrolo[2,3-d]pyrimidine-5-carbonitrile]",10 to 100,0.51,high ED50 value
–,–,"CC(C)(C)[Si](C)(C)OCCCCOc1cc(CNc2c(C#N)c3c(N)ncnc3n2C2O[C@H](CO)[C@@H](O)[C@@]2(C)O)ccc1-c1ccccc1 (stereo partly drawn) [Compound (5), 4-Amino-6-({2-[4-(tert-butyl-dimethyl-silanyloxy)-butoxy]-biphenyl-4-ylmeth-yl}-amino)-7-(3,4-dihydroxy-5-hydroxymethyl-3-methyl-tetrahydro-furan-2-yl)-7H-pyrrolo[2,3-d]pyrimidine-5-carbonitrile]",≥ 100,–,–
–,–,"C[C@]1(O)C(n2c(NCc3ccc(-c4ccccc4)c(OCCCCN4CCCCC4)c3)c(C#N)c3c(N)ncnc32)O[C@H](CO)[C@H]1O (stereo partly drawn) [Compound (6), 4-Amino-7-(3,4-dihydroxy-5-hydroxymethyl-3-methyl-tetrahydro-furan-2-yl)-6-{[2-(4-piperidin-1-yl-butoxy)-biphenyl-4-ylmethyl]-amino}-7H-pyrrolo[2,3-d]pyrimidine-5-carbonitrile]",10 to 100,–,–
–,–,"CN(C)C(=O)CCCCOc1cc(CNc2c(C#N)c3c(N)ncnc3n2C2O[C@H](CO)[C@@H](O)[C@@]2(C)O)ccc1-c1ccccc1 (stereo partly drawn) [Compound (7), 5-(4-{[4-Amino-5-cyano-7-(3,4-dihydroxy-5-hydroxymethyl-3-methyltetrahydrofuran-2-yl)-7H-pyrrolo[2,3-d]pyrimidin-6-ylamino]-methyl}-biphenyl-2-yloxy)-pentanoic acid dimethylamide]",1 to 10,3,high ED50 value
–,–,"C[C@]1(O)C(n2c(NCc3ccc(-c4ccccc4)c(OCCCCO)c3)c(C#N)c3c(N)ncnc32)O[C@H](CO)[C@H]1O (stereo partly drawn) [Compound (8), 4-Amino-7-(3,4-dihydroxy-5-hydroxymethyl-3-methyl-tetrahydro-furan-2-yl)-6-{[2-(4-hydroxy-butoxy)-biphenyl-4-ylmethyl]-amino}-7H-pyrrolo[2,3-d]pyrimidine-5-carbonitrile]",1 to 10,0.78,high ED50 value
–,–,"CCOC(=O)CCCCOc1cc(CNc2c(C#N)c3c(O)ncnc3n2C2O[C@H](CO)[C@@H](O)[C@@]2(C)O)ccc1-c1ccccc1 (stereo partly drawn) [Compound (9), 5-(4-{[5-Cyano-7-(3,4-dihydroxy-5-hydroxymethyl-3-methyltetrahydro-furan-2-yl)-4-hydroxy-7H-pyrrolo[2,3-d]pyrimidin-6-ylamino]methyl}-biphenyl-2-yloxy)-pentanoic acid ethyl ester]",≥ 100,–,–
